Assay results published in patent US20080171720A1, “Nutritional Supplement For Hiv Patients” (N.V. Nutricia, priority 2005, published 2008).

System: intestinal tight junction permeability
Assay: Inflammatory mediated intestinal tight junction permeability
Conditions: no method or data given

CCCCC/C=C\C/C=C\C/C=C\CCCCC(=O)O [GLA, gamma linolenic acid]
reduction of inflammatory mediated intestinal tight junction permeability: effectively reduce inflammatory mediated intestinal tight junction permeability
